Measurements from patent US5574043A, “Certain [1,2,5-thiadiazol-4-yl]-1-azabicyclo [3.2.1]octane derivatives and their pharmaceutical uses” (Novo Nordisk A/S, priority 1995, dated 1996).
Counter-ions that a name gives are not always drawn.

System: not given
Assay: not given
Conditions: in vivo; cited from earlier work

Structure (SMILES)	biological half life
COC(=O)C1=CCCN(C)C1 [Arecoline, methyl 1-methyl-1,2,5,6-tetrahydropyridine-3carboxylate]	very short

Target: muscarinic acetylcholine receptors
Assay: Inhibition of specific binding of 3H-Oxotremorine-M (OXO BINDING) in vitro, rat cortex
Design: species or system male Wistar rats
Conditions: rat cortex homogenate, 3H-Oxotremorine 1.0 nM, 30 min at 25° C., pH 7.4
Method in brief: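 Washed male Wistar rat cortex membranes in 20 mM Hepes pH 7.4 incubated 30 min at 25° C with 1.0 nM ³H-Oxotremorine-M (final) and test compound; nonspecific binding with 1 μg/ml arecoline. Filtration and scintillation counting; IC50 (ng/ml) for specific binding calculated assuming mass-action kinetics.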

Structure (SMILES)	Inhibition in vitro OXO BINDING IC50
COc1nsnc1C1=C(Cl)C2CCCN(C1)C2.O=C(O)C(=O)O (centres unmarked) [Compound 64, 4-Chloro-3-(3-methoxy-1,2,5-thiadiazol-4-yl)-1-azabicyclo[3.3.1]non-3-ene oxalate]	8.2 ng/mL
ClC1=C(c2cnsn2)CN2CCCC1C2.O=C(O)C(=O)O (centres unmarked) [Compound 65, 4-Chloro-3-(1,2,5-thiadiazol-4-yl)-1-azabicyclo[3.3.1]non-3-ene oxalate]	9.6 ng/mL
Clc1nsnc1C12CCCN(CC1)C2.O=C(O)C(=O)O (centres unmarked) [Compound 67, 5-(3-Chloro-1,2,5-thiadiazol-4-yl)-1-azabicyclo[3.2.1]octane oxalate]	0.43 ng/mL
CCCCCCSc1nsnc1C12CCCN(CC1)C2.O=C(O)C(=O)O (centres unmarked) [Compound 68, 5-(3-Hexylthio-1,2,5-thiadiazol-4-yl)-1-azabicyclo[3.2.1]octane oxalate]	0.69 ng/mL
CCCCOc1nsnc1C1=C(Cl)C2CCCN(C1)C2.O=C(O)C(=O)O (centres unmarked) [Compound 93, 4-Chloro-3-(3-butoxy-1,2,5-thiadiazol-4-yl)-1-azabicyclo[3.3.1]non-3-ene oxalate]	9.0 ng/mL
CCCCCCOc1nsnc1C1=C(Cl)C2CCCN(C1)C2.Cl (centres unmarked) [Compound 94, 4-Chloro-3-(3-hexyloxy-1,2,5-thiadiazol-4-yl)-1-azabicyclo[3.3.1]non-3-ene hydrochloride]	12 ng/mL
CCCCOc1nsnc1C1=CC2CCCN(C1)C2.O=C(O)C(=O)O (centres unmarked) [Compound 95, 3-(3-Butoxy-1,2,5-thiadiazol-4-yl)-1-azabicyclo[3.3.1]non-3-ene oxalate]	1.7 ng/mL
COc1nsnc1C1=CC2CCCN(C1)C2.O=C(O)C(=O)O (centres unmarked) [Compound 96, 3-(3-Methoxy-1,2,5-thiadiazol-4-yl)-1-azabicyclo[3.3.1]non-3-ene oxalate]	0.3 ng/mL
CCCCCCOc1nsnc1C1=CC2CCCN(C1)C2.O=C(O)C(=O)O (centres unmarked) [Compound 98, 3-(3-Hexyloxy-1,2,5-thiadiazol-4-yl)-1-azabicyclo[3.3.1]non-3-ene oxalate]	1.0 ng/mL
CCC(C)Sc1nsnc1C1CN2CCC1CC2.O=C(O)/C=C/C(=O)O (centres unmarked) [Compound 100, 3-(3-(1-Methylpropylthio)-1,2,5-thiadiazol-4-yl)-1-azabicyclo[2.2.2]octane fumarate]	0.82 ng/mL
CC(C)CSc1nsnc1C1CN2CCC1CC2.O=C(O)/C=C/C(=O)O (centres unmarked) [Compound 101, 3-(3-Isobutylthio-1,2,5-thiadiazol-4-yl)-1-azabicyclo[2.2.2]octane fumarate]	0.75 ng/mL
O=C(O)/C=C/C(=O)O.c1ccc(OCCSc2nsnc2C2CN3CCC2CC3)cc1 (centres unmarked) [Compound 102, 3-(3-(2-Phenoxyethylthio)-1,2,5-thiadiazol-4-yl)-1-azabicyclo[2.2.2]octane fumarate]	1.52 ng/mL
N#CCSc1nsnc1C1CN2CCC1CC2.O=C(O)C(=O)O (centres unmarked) [Compound 103, 3-(3-Cyanomethylthio-1,2,5-thiadiazol-4-yl)-1-azabicyclo[2.2.2]octane oxalate]	0.92 ng/mL
c1csc(CCCSc2nsnc2C2CN3CCC2CC3)c1 (centres unmarked) [Compound 104, 3-(3-(3-(2-Thienyl)propylthio)-1,2,5-thiadiazol-4-yl)-1-azabicyclo[2.2.2]fumarate]	0.85 ng/mL
Cn1nnnc1SCCCCSc1nsnc1C1CN2CCC1CC2 (centres unmarked) [Compound 106, oxalate]	0.9 ng/mL
Cc1nnc(SCCCCSc2nsnc2C2CN3CCC2CC3)s1 (centres unmarked) [Compound 107, oxalate]	0.3 ng/mL
c1ccc2sc(SCCCCSc3nsnc3C3CN4CCC3CC4)nc2c1 (centres unmarked) [Compound 108, 3-(3-(4-(2-Benzothiazolyl)thio)butylthio-1,2,5-thiadiazol-4-yl)-1-azabicyclo[2.2.2]octane oxalate]	16 ng/mL
CCc1ccc(COc2nsnc2C2CN3CCC2CC3)cc1.O=C(O)C(=O)O (centres unmarked) [Compound 109, 3-(3-(4-Ethylbenzyloxy)-1,2,5-thiadiazol-4-yl)-1-azabicyclo[2.2.2]octane oxalate]	4.0 ng/mL
O=C(O)/C=C/C(=O)O.c1csc(CCCOc2nsnc2C2CN3CCC2CC3)c1 (centres unmarked) [Compound 110, 3-(3-(3-(2-Thienyl)propoxy)-1,2,5-thiadiazol-4-yl)-1-azabicyclo[2.2.2]octane fumarate]	1.1 ng/mL
CSc1nsnc1C1CN2CCC1CC2.O=C(O)C(=O)O (centres unmarked) [Compound 131, 3-(3-Methylthio-1,2,5-thiadiazol-4-yl)-1-azabicyclo[2.2.2]octane oxalate]	0.96 ng/mL
O=C(O)/C=C/C(=O)O.c1nsnc1C1CN2CCC1CC2 (centres unmarked) [Compound 132, 3-(1,2,5-Thiadiazol-3-yl)-1-azabicyclo[2.2.2]octane fumarate]	0.96 ng/mL

System: central and peripheral muscarinic effects
Assay: not given
Conditions: cited from earlier work

Structure (SMILES)	separation between central and peripheral muscarinic effects
COC(=O)C1=CCCN(C)C1 [Arecoline, methyl 1-methyl-1,2,5,6-tetrahydropyridine-3carboxylate]	small separation
